Reference: patent US20200207734A1, “HETEROCYCLIC COMPOUND AND USE THEREOF” (Takeda Pharmaceutical Company Limited, priority 2017, published 2020)

The compounds below were run against T1, human orexin type 2 receptor (Homo sapiens, UniProt O43614) (assay: Measurement of orexin type 2 receptor agonist activity (calcium fluorescence, CHO cells expressing hOX2R)). Settings: test compound 3 μM; CHO cells expressing human OX2 receptor; DMSO = 0%, orexin A (human) = 100%.
T1 construct: human orexin type 2 receptor cDNA was inserted into pcDNA3.1(+) plasmid vector (Invitrogen); expressed in transfected cells
T1 sequence (O43614 1-444): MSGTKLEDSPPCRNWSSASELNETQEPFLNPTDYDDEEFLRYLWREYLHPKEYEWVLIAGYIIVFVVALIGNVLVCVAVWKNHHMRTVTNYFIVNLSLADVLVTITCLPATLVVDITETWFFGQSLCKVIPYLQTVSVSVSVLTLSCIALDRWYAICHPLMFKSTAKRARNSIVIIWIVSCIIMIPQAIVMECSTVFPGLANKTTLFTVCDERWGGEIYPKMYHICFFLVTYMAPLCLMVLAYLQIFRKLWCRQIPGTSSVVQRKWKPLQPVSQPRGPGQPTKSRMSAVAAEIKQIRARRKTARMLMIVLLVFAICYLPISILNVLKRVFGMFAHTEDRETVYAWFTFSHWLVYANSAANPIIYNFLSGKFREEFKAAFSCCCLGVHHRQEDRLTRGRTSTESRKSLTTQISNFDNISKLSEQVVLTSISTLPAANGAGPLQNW
Format: cell-based
In short: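 CHO-dhfr cells stably expressing hOX2R, loaded with Fluo-4 AM in HBSS/20 mM HEPES/0.1% BSA with probenecid, then given test compound. Calcium fluorescence was read for about 2 min 40 sec. Activity (%) was scaled between DMSO (0%) and 10 nM final human orexin A (100%).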
For `CCS(=O)(=O)N[C@H]1CCN(C(=O)C23CC(C2)C3)[C@H]1Cc1csc(-c2cc(F)cc(F)c2)n1` (relative stereo) [Example 318, N-(cis-1-(bicyclo[1.1.1]pent-1-ylcarbonyl)-2-((2-(3,5-difluorophenyl)-1,3-thiazol-4-yl)methyl)pyrrolidin-3-yl)ethanesulfonamide], the “OX2R agonist activity (3 μM, %)” value was 102%. In the case of `CS(=O)(=O)N[C@H]1CCN(C(=O)C2CCC2)[C@H]1Cc1csc(-c2ccccc2)n1` (relative stereo) [Example 319, N-(cis-1-(cyclobutylcarbonyl)-2-((2-phenyl-1,3-thiazol-4-yl)methyl)pyrrolidin-3-yl)methanesulfonamide], the “OX2R agonist activity (3 μM, %)” value is reported as 101%. In the case of `CC1(C(=O)N2CC[C@H](NS(C)(=O)=O)[C@@H]2Cc2csc(-c3cc(F)cc(F)c3)n2)CCC1` (relative stereo) [Example 322, N-(cis-2-((2-(3,5-difluorophenyl)-1,3-thiazol-4-yl)methyl)-1-((1-methylcyclobutyl)carbonyl)pyrrolidin-3-yl)methanesulfonamide], the “OX2R agonist activity (3 μM, %)” value is reported as 104%. In the case of `CS(=O)(=O)N[C@H]1CCN(C(=O)C2(O)CCC2)[C@H]1Cc1csc(-c2cc(F)cc(F)c2)n1` (relative stereo) [Example 323, N-(cis-2-((2-(3,5-difluorophenyl)-1,3-thiazol-4-yl)methyl)-1-((1-hydroxycyclobutyl)carbonyl)pyrrolidin-3-yl)methanesulfonamide], the “OX2R agonist activity (3 μM, %)” value is reported as 109%. With `CS(=O)(=O)N[C@H]1CCN(C(=O)N2CCC2)[C@H]1Cc1cccc(-c2cccc(F)c2)n1` (relative stereo) [Example 333, N-(cis-1-(azetidin-1-ylcarbonyl)-2-((6-(3-fluorophenyl)pyridin-2-yl)methyl)pyrrolidin-3-yl)methanesulfonamide] the “OX2R agonist activity (3 μM, %)” value was 101%. `CS(=O)(=O)N[C@H]1CCN(C(=O)C2(O)CCC2)[C@H]1Cc1cccc(-c2cccc(F)c2)n1` (relative stereo) [Example 338, N-(cis-2-((6-(3-fluorophenyl)pyridin-2-yl)methyl)-1-((1-hydroxycyclobutyl)carbonyl)pyrrolidin-3-yl)methanesulfonamide] was tested, and the “OX2R agonist activity (3 μM, %)” value was 103%. `CC(C)OC(=O)N1CCCC(NS(C)(=O)=O)C1Cc1cccc(-c2ccccc2)n1` (stereo not drawn) [Example 76, Optically Active isopropyl cis-3-((methylsulfonyl)amino)-2-((6-phenylpyridin-2-yl)methyl)piperidine-1-carboxylate] was tested, and the “OX2R agonist activity (3 μM, %)” value was 106%. `CCOC(=O)N1CC[C@H](NS(C)(=O)=O)[C@@H]1Cc1cccc(-c2ccccc2)c1` [Example 101, ethyl (2S,3S)-2-(biphenyl-3-ylmethyl)-3-((methylsulfonyl)amino)pyrrolidine-1-carboxylate] was tested, and the “OX2R agonist activity (3 μM, %)” value was 96%. With `CC(C)OC(=O)N1CCCC(NS(C)(=O)=O)C1Cc1csc(-c2ccccc2)n1` (stereo not drawn) [Example 210, Optically Active isopropyl cis-3-((methylsulfonyl)amino)-2-((2-phenyl-1,3-thiazol-4-yl)methyl)piperidine-1-carboxylate] the “OX2R agonist activity (3 μM, %)” value was 102%. In the case of `CS(=O)(=O)N[C@H]1CCN(C(=O)C2CCC2)[C@H]1Cc1cccc(-c2ccccc2)c1` [Example 261, N-((2S,3S)-2-(biphenyl-3-ylmethyl)-1-(cyclobutylcarbonyl)pyrrolidin-3-yl)methanesulfonamide], the “OX2R agonist activity (3 μM, %)” value is reported as 97%. In the case of `CS(=O)(=O)N[C@H]1CCN(C(=O)C2CCC2)[C@H]1Cc1cccc(-c2cccc(F)c2)c1` [Example 262, N-((2S,3S)-1-(cyclobutylcarbonyl)-2-((3′-fluorobiphenyl-3-yl)methyl)pyrrolidin-3-yl)methanesulfonamide], the “OX2R agonist activity (3 μM, %)” value is reported as 101%. `CS(=O)(=O)N[C@H]1CCN(C(=O)C2(F)CCC2)[C@H]1Cc1cccc(-c2cccc(F)c2)c1` [Example 266, N-((2S,3S)-2-((3′-fluorobiphenyl-3-yl)methyl)-1-((1-fluorocyclobutyl)carbonyl)pyrrolidin-3-yl)methanesulfonamide] was tested, and the “OX2R agonist activity (3 μM, %)” value was 107%. For `CC1(C(=O)N2CC[C@H](NS(C)(=O)=O)[C@@H]2Cc2cccc(-c3cccc(F)c3)c2)CCC1` [Example 305, N-((2S,3S)-2-((3′-fluorobiphenyl-3-yl)methyl)-1-((1-methylcyclobutyl)carbonyl)pyrrolidin-3-yl)methanesulfonamide], the “OX2R agonist activity (3 μM, %)” value was 105%. For `CS(=O)(=O)N[C@H]1CCN(C(=O)C23CC(C2)C3)[C@H]1Cc1cccc(-c2cccc(F)c2)c1` [Example 306, N-((2S,3S)-1-(bicyclo[1.1.1]pent-1-ylcarbonyl)-2-((3′-fluorobiphenyl-3-yl)methyl)pyrrolidin-3-yl)methanesulfonamide], the “OX2R agonist activity (3 μM, %)” value was 100%. With `CS(=O)(=O)N[C@H]1CCN(C(=O)C23CC(C2)C3)[C@H]1Cc1cccc(-c2cc(F)cc(F)c2)c1` [Example 307, N-((2S,3S)-1-(bicyclo[1.1.1]pent-1-ylcarbonyl)-2-((3′,5′-difluorobiphenyl-3-yl)methyl)pyrrolidin-3-yl)methanesulfonamide] the “OX2R agonist activity (3 μM, %)” value was 102%. In the case of `CS(=O)(=O)N[C@H]1CCN(C(=O)C2(O)CCC2)[C@H]1Cc1cccc(-c2cccc(F)c2)c1` [Example 308, N-((2S,3S)-2-((3′-fluorobiphenyl-3-yl)methyl)-1-((1-hydroxycyclobutyl)carbonyl)pyrrolidin-3-yl)methanesulfonamide], the “OX2R agonist activity (3 μM, %)” value is reported as 107%. In the case of `CS(=O)(=O)N[C@H]1CCN(C(=O)C2(C(F)(F)F)CCC2)[C@H]1Cc1cccc(-c2cccc(F)c2)c1` [Example 309, N-((2S,3S)-2-((3′-fluorobiphenyl-3-yl)methyl)-1-((1-(trifluoromethyl)cyclobutyl)carbonyl)pyrrolidin-3-yl)methanesulfonamide], the “OX2R agonist activity (3 μM, %)” value is reported as 101%. `CS(=O)(=O)N[C@H]1CCN(C(=O)C2CCC2)[C@H]1Cc1cccc(-c2cc(F)cc(F)c2)c1` [Example 310, N-((2S,3S)-1-(cyclobutylcarbonyl)-2-((3′,5′-difluorobiphenyl-3-yl)methyl)pyrrolidin-3-yl)methanesulfonamide] was tested, and the “OX2R agonist activity (3 μM, %)” value was 102%. With `Cc1cccc(-c2cccc(C[C@H]3[C@@H](NS(C)(=O)=O)CCN3C(=O)C3CCC3)c2)c1` [Example 311, N-((2S,3S)-1-(cyclobutylcarbonyl)-2-((3′-methylbiphenyl-3-yl)methyl)pyrrolidin-3-yl)methanesulfonamide] the “OX2R agonist activity (3 μM, %)” value was 103%. In the case of `COCS(=O)(=O)N[C@H]1CCN(C(=O)C2CCC2)[C@H]1Cc1cccc(-c2cccc(F)c2)c1` [Example 312, N-((2S,3S)-1-(cyclobutylcarbonyl)-2-((3′-fluorobiphenyl-3-yl)methyl)pyrrolidin-3-yl)-1-methoxymethanesulfonamide], the “OX2R agonist activity (3 μM, %)” value is reported as 103%. In the case of `CS(=O)(=O)N[C@H]1CCN(C(=O)N2CCC2)[C@H]1Cc1cccc(-c2cccc(F)c2)c1` [Example 313, N-((2S,3S)-1-(azetidin-1-ylcarbonyl)-2-((3′-fluorobiphenyl-3-yl)methyl)pyrrolidin-3-yl)methanesulfonamide], the “OX2R agonist activity (3 μM, %)” value is reported as 100%. In the case of `COC1(C(=O)N2CC[C@H](NS(C)(=O)=O)[C@@H]2Cc2cccc(-c3cccc(F)c3)c2)CCC1` [Example 314, N-((2S,3S)-2-((3′-fluorobiphenyl-3-yl)methyl)-1-((1-methoxycyclobutyl)carbonyl)pyrrolidin-3-yl)methanesulfonamide], the “OX2R agonist activity (3 μM, %)” value is reported as 107%. With `CS(=O)(=O)N[C@H]1CCN(C(=O)C2CCC2)[C@H]1Cc1csc(-c2cccc(F)c2)n1` [Example 320, N-((2S,3S)-1-(cyclobutylcarbonyl)-2-((2-(3-fluorophenyl)-1,3-thiazol-4-yl)methyl)pyrrolidin-3-yl)methanesulfonamide] the “OX2R agonist activity (3 μM, %)” value was 103%. `O=C(C1CCC1)N1CC[C@H](NS(=O)(=O)C2CC2)[C@@H]1Cc1csc(-c2ccccc2)n1` [Example 321, N-((2S,3S)-1-(cyclobutylcarbonyl)-2-((2-phenyl-1,3-thiazol-4-yl)methyl)pyrrolidin-3-yl)cyclopropanesulfonamide] was tested, and the “OX2R agonist activity (3 μM, %)” value was 104%. In the case of `COCS(=O)(=O)N[C@H]1CCN(C(=O)C2CCC2)[C@H]1Cc1cccc(-c2ccccc2)c1` [Example 324, N-((2S,3S)-2-(biphenyl-3-ylmethyl)-1-(cyclobutylcarbonyl)pyrrolidin-3-yl)-1-methoxymethanesulfonamide], the “OX2R agonist activity (3 μM, %)” value is reported as 103%. With `CS(=O)(=O)N[C@H]1CCN(C(=O)C2CCO2)[C@H]1Cc1cccc(-c2cccc(F)c2)c1` (stereo partly drawn) [Example 328, N-((2S,3S)-2-((3′-fluorobiphenyl-3-yl)methyl)-1-(oxetan-2-ylcarbonyl)pyrrolidin-3-yl)methanesulfonamide] the “OX2R agonist activity (3 μM, %)” value was 104%. `CS(=O)(=O)N[C@H]1CCN(C(=O)C2(O)CCC2)[C@H]1Cc1csc(-c2cc(F)cc(F)c2)n1` [Example 339, N-((2S,3S)-2-((2-(3,5-difluorophenyl)-1,3-thiazol-4-yl)methyl)-1-((1-hydroxycyclobutyl)carbonyl)pyrrolidin-3-yl)methanesulfonamide] was tested, and the “OX2R agonist activity (3 μM, %)” value was 102%.
